Where “and” joins values, the source holds several entries; their conditions need not be identical. Equal values may be shown once.
What was measured:
[1] = target: T1, NLRP3 inflammasome (Mus musculus, UniProt Q8R4B8); test: Inflammasome stimulation of BMDCs after pre-incubation with inhibitors (MCC950, KCl, ebselen, cytochalasin D); format: cell-based
T1 construct: endogenous in cells; host or cells: primary mouse bone marrow-derived dendritic cells (BMDCs), LPS-primed
Procedure: For canonical inflammasome activation BMDCs after 7-9 days of differentiation were harvested and counted with a Neubauer Chamber (Hecht Assistant) and the concentration was set to 1 Mio cells ml^−1. 100 μl cell suspension per well were seeded in 96-well plates. The cells were primed with 50 ng ml^−1 E. coli K12 ultra-pure LPS for 3 hours and subsequently treated with canonical inflammasome activators or experimental compounds for 3 hours if not indicated differently (incubation time FIG. 4D, 5, 7, 8, 11, 13-18: 3 h, FIG. 12: 4 h). Concentrations of the stimuli were as follows if not indicated differently: 5 μM nigericin, 100 μM imiquimod (also known as R837), 100 μM CL097, 100 μM R848, […] poly(dA:dT), 300 μg ml^−1 MSU. If an inhibitor was used before stimuli treatment, the inhibitor was added after 2.5 hours of priming and it was incubated for 30 minutes before inflammasome activation. […]
(§1) All inflammasome stimulations were performed in three technical replicates for each condition. Lytic cell death was determined via LDH release (see FIGS. 8, 13-16 and 18), cytokines quantified in cell-free supernatants via ELISA (see FIGS. 4D, 7-9, 11-19) and cell lysates and supernatants analyzed via immunoblotting (see FIGS. 5A and 5B) as previously described in detail (Gross, Olaf, 2012 “Measuring the inflammasome”, Methods in molecular biology, Clifton, N.J., 844, pp. 199-222. Schneider, Katharina S.; Thomas, Christina J.; Groß, Olaf, 2013, “Inflammasome activation and inhibition in primary murine bone marrow-derived cells, and assays for IL-1α, IL-1β, and caspase-1”, Methods in molecular biology, Clifton, N.J., 1040, pp. 117-135).

[2] = target: T1, NLRP3 inflammasome; test: IL-1β release from LPS-primed BMDCs (ELISA) as readout of NLRP3 inflammasome activation; format: cell-based
Outline: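 NLRP3 inflammasome activation was read out as IL-1β released into the supernatant, measured by ELISA. Murine BMDCs were primed with LPS (50 ng ml^−1, 3 hours), then incubated with compounds for 3 hours, with each condition run in three technical replicates. Nigericin at 5 μM acted as the positive control activator, and IL-1β release was also expressed as a percentage of that control.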

[3] = tested on: NLRP3; test: Inflammasome stimulation (IL-1β, LDH release) in BMDCs from NLRP3 knockout or ASC knockout mice; format: cell-based, mouse; details: IL-1β and LDH release
Procedure: For canonical inflammasome activation BMDCs after 7-9 days of differentiation were harvested and counted with a Neubauer Chamber (Hecht Assistant) and the concentration was set to 1 Mio cells ml^−1. 100 μl cell suspension per well were seeded in 96-well plates. The cells were primed with 50 ng ml^−1 E. coli K12 ultra-pure LPS for 3 hours and subsequently treated with canonical inflammasome activators or experimental compounds for 3 hours if not indicated differently (incubation time FIG. 4D, 5, 7, 8, 11, 13-18: 3 h, FIG. 12: 4 h). Concentrations of the stimuli were as follows if not indicated differently: 5 μM nigericin, 100 μM imiquimod (also known as R837), 100 μM CL097, 100 μM R848, […] poly(dA:dT), 300 μg ml^−1 MSU. If an inhibitor was used before stimuli treatment, the inhibitor was added after 2.5 hours of priming and it was incubated for 30 minutes before inflammasome activation. Inhibitors were used as follows: 3 μM MCC950, 45 mM KCl, 30 μM ebselen (2-Phenyl-1,2-benzoselenazol-3-one), 5 μM cytochalasin D (see FIGS. 8, 11, 12 and 17).
as §1

T1 sequence (Q8R4B8 whole entry): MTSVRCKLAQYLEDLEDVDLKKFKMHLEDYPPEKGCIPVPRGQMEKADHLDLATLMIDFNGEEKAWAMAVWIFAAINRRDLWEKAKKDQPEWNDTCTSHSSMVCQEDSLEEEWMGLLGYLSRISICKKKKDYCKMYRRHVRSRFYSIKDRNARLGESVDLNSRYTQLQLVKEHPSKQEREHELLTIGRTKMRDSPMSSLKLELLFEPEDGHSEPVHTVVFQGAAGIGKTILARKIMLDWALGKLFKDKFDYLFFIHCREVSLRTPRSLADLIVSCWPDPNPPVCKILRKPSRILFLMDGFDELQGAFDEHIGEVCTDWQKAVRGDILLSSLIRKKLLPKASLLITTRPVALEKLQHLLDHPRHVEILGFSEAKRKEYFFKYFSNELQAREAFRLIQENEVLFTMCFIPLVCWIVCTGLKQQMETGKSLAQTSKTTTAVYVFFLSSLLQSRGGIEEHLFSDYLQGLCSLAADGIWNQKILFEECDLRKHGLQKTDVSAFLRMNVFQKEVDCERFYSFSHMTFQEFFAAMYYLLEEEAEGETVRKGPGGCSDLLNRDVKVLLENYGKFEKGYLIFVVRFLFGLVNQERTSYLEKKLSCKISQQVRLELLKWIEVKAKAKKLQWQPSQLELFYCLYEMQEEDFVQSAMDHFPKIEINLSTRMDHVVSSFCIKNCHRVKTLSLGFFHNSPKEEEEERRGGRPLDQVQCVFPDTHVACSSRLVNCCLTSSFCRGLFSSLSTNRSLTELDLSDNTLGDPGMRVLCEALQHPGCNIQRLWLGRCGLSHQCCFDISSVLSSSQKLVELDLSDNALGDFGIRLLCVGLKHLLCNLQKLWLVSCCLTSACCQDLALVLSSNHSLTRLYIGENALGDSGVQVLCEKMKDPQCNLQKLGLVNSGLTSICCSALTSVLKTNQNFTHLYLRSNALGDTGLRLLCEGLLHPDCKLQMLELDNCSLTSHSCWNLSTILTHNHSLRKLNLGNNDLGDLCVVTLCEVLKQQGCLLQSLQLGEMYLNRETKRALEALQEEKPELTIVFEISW

O=C(Nc1ccccc1)Nc1ccc2ncccc2c1 [EN22, 1-phenyl-3-(quinolin-6-yl)urea]
dependence of NLRP3 inflammasome activation on potassium efflux from the cell ([1]; 50 mM extracellular KCl, FIGS. 11 and 17): independently of potassium efflux | effect of the endocytosis inhibitor cytochalasin D on NLRP3 activation ([1]; LPS-primed wild-type BMDCs, FIG. 12): has no effect | effect of the NLRP3-specific inhibitor MCC950 on inflammasome activation by the compound ([1]; wild-type BMDCs, compound 50 μM, FIG. 8): completely suppresses | Average IL-1β ([2]; 10 μM): 10.000 ng/mL | IL-1β ([2]; 10 μM, individual replicate values): 10.000 ng/mL | Average IL-1β ([2]; 18.75 μM): 6.322 ng/mL | IL-1β ([2]; 18.75 μM, individual replicate values): 7.071 ng/mL and 5.864 ng/mL and 6.030 ng/mL | Average IL-1β ([2]; 25 μM, EN11 series table): 1.474 ng/mL | IL-1β ([2]; 25 μM, individual replicate values, EN11 series table): 1.387 ng/mL and 1.391 ng/mL and 1.646 ng/mL | time after which inflammasome activation is almost maximum ([2]; BMDCs from wild-type mice without inhibitor): 30 min | EC50 for induction of IL-1β, times lower than for imiquimod and CL097 ([2]; BMDCs, FIG. 4D): 10 times | Average (% positive control) ([2]; IL-1β release, compound 50 μM, positive control nigericin 5 μM): 128.957 % positive control | Average (% positive control) ([2]; IL-1β, 10 μM, positive control EN22 10 μM): 100.000 % positive control | Average (% positive control) ([2]; IL-1β, 18.75 μM, positive control EN22 18.75 μM): 100.000 % positive control | Average (% positive control) ([2]; IL-1β, 25 μM, positive control EN22 25 μM): 100.000 % positive control | Average (% positive control) ([2]; IL-1β, concentration not given, positive control EN22): 100.000 % positive control | Average IL-1β ([2]; compound 50 μM, LPS-primed BMDCs): 9.244 ng/mL | Average IL-1β ([2]; concentration not given, JB series table): 1.957 ng/mL | IL-1β ([2]; concentration not given, individual replicate values, JB series table): 1.632 ng/mL and 2.095 ng/mL and 2.146 ng/mL | Average IL-1β ([2]; section 1.2, 25 μM): 5.026 ng/mL | Average (% positive control) ([2]; section 1.2, IL-1β release, 25 μM, positive control EN22 25 μM): 100.000 % positive control | IL-1β ([2]; section 1.2, single replicates, 25 μM): 4.821 ng/mL and 5.196 ng/mL and 5.062 ng/mL | IL-1β ([2]; single replicates, compound 50 μM, LPS-primed BMDCs): 8.679 ng/mL and 9.014 ng/mL and 9.589 ng/mL and 8.363 ng/mL and 10.000 ng/mL and 9.819 ng/mL | characteristics of inflammasome activation in cells isolated from NLRP3 knockout mice [3]: do not occur
